# Results taken from patent US10590140B2, “Tetrahydropyrimidodiazepine and dihydropyridodiazepine compounds for treating pain and pain related conditions” (ESTEVE PHARMACEUTICALS, S.A., priority 2016, dated 2020).
# Target: human α2δ-1 subunit of Cav2.2 calcium channel (Homo sapiens (Human), UniProt P54289)
# Experiment: Binding assay to human α2δ-1 subunit of Cav2.2 calcium channel ([3H]-Gabapentin)
# Details: Table 2, dual compounds; [3H]-Gabapentin binding; read-out: Ki (nM) α2δ-1
# Method in brief: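 Radioactivity on dried GF/C filters quantified by scintillation after filtration and three cold Tris-HCl (pH 7.4) washes. Incubation ran 60 min at 27° C with [3H]-gabapentin; 10 μM pregabalin gave nonspecific binding.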
# human α2δ-1 subunit of Cav2.2 calcium channel, sequence (P54289 25-1103): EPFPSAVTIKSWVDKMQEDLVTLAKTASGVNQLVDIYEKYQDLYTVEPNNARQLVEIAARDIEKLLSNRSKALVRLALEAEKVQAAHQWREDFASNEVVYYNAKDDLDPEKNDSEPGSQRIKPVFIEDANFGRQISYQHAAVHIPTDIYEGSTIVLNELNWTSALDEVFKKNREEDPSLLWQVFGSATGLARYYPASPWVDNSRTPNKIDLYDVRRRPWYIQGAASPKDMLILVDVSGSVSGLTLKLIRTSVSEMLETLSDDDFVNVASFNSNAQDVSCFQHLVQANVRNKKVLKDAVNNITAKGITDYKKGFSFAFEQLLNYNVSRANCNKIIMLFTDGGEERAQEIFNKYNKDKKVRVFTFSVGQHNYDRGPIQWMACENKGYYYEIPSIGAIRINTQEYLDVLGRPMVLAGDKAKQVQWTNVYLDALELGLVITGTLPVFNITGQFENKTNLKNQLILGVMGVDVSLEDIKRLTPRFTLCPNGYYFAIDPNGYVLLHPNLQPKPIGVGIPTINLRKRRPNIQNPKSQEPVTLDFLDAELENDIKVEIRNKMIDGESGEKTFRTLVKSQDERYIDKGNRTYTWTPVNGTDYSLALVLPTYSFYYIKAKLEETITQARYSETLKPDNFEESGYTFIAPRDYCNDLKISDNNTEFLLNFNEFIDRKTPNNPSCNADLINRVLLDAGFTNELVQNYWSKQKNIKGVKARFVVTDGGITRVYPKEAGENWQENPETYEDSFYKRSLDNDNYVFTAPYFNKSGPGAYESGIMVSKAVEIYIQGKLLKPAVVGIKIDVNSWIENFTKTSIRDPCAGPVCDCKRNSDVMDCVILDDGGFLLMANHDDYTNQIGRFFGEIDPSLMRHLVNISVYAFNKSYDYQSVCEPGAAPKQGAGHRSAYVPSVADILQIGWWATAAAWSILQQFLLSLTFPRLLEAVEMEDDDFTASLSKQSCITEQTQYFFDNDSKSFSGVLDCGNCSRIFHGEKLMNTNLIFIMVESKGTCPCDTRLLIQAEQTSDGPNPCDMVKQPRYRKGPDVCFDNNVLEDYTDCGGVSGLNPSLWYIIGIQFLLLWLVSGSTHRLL
row,SMILES,Ki
1,"CNCCC(OCc1cccc(N2CCN(C)c3nc(OC)ncc3C2=O)c1)c1cccs1 (centres unmarked) [Example 221, 2-methoxy-9-methyl-6-(3-((3-(methylamino)-1-(thiophen-2-yl)propoxy)methyl)phenyl)-6,7,8,9-tetrahydro-5H-pyrimido[4,5-e][1,4]diazepin-5-one]",100 to 500 nM

# Same assay, conditions: binding to α2δ-1, [3H]-Gabapentin; read-out: Ki (nM) α2δ-1
row,SMILES,Ki
1,"CSc1ncc2c(n1)N(C)CCN(c1cccc(O[C@H](CCN(C)C(=O)OC(C)(C)C)c3cccs3)c1)C2=O [Example 13, tert-butyl (R)-methyl(3-(3-(9-methyl-2-(methylthio)-5-oxo-5,7,8,9-tetrahydro-6H-pyrimido[4,5-e] [1,4]diazepin-6-yl)phenoxy)-3-(thiophen-2-yl)propyl) carbamate]",> 3000 nM
2,"CCNc1ncc2c(n1)N(C)CCN(c1cccc(CNC)c1)C2=O [Example 174, 2-(ethylamino)-9-methyl-6-(3-((methylamino)methyl)phenyl)-6,7,8,9-tetrahydro-5H-pyrimido[4,5-e][1,4]diazepin-5-one]",500 to 3000 nM
3,"CCNc1ncc2c(n1)N(C)CCN(c1cccc(OC(C)CNC)c1)C2=O (centres unmarked) [Example 157, 2-(ethylamino)-9-methyl-6-(3-((1-(methylamino)propan-2-yl)oxy)phenyl)-6,7,8,9-tetrahydro-5H-pyrimido[4,5-e][1,4]diazepin-5-one]",500 to 3000 nM
4,"CCNc1ncc2c(n1)N(C)CCN(c1cccc(N3CCC(c4ccccc4)(N(C)C)CC3)c1)C2=O [Example 312, 6-(3-(4-(dimethylamino)-4-phenylpiperidin-1-yl)phenyl)-2-(ethylamino)-9-methyl-6,7,8,9-tetrahydro-5H-pyrimido[4,5-e][1,4]diazepin-5-one]",500 to 3000 nM
5,"CCNc1ncc2c(n1)N(C)CCN(c1ccccc1COC(CNC)c1ccccc1)C2=O (centres unmarked) [Example 339, 2-(ethylamino)-9-methyl-6-(2-((2-(methylamino)-1-phenylethoxy)methyl)phenyl)-6,7,8,9-tetrahydro-5H-pyrimido[4,5-e][1,4]diazepin-5-one]",> 3000 nM
6,"CN(CC[C@H](Oc1ccc(CN2CCN(C)c3cc(Cl)ncc3C2=O)cc1)c1cccs1)C(=O)OCC[Si](C)(C)C [Example 299, 2-(trimethylsilyl)ethyl (S)-(3-(4-((8-chloro-1-methyl-5-oxo-1,2,3,5-tetrahydro-4H-pyrido[4,3-e][1,4]diazepin-4-yl)methyl)phenoxy)-3-(thiophen-2-yl)propyl)(methyl) carbamate]",> 3000 nM
7,"Cc1ncc2c(n1)N(C)CCN(c1cccc(COC(CCN(C)C(=O)OC(C)(C)C)c3cccs3)c1)C2=O (centres unmarked) [Example 143, tert-butyl (3-((3-(2,9-dimethyl-5-oxo-5,7,8,9-tetrahydro-6H-pyrimido[4,5-e][1,4]diazepin-6-yl)benzyl)oxy)-3-(thiophen-2-yl)propyl)(methyl) carbamate]",> 3000 nM
8,"CCNc1ncc2c(n1)N(C)CCN(c1ccccc1OC(CCN(C)C(=O)OC(C)(C)C)c1ccccc1)C2=O (centres unmarked) [Example 125, tert-butyl (3-(2-(2-(ethylamino)-9-methyl-5-oxo-5,7,8,9-tetrahydro-6H-pyrimido[4,5-e][1,4]diazepin-6-yl)phenoxy)-3-phenylpropyl)(methyl) carbamate]",> 3000 nM
9,"CCNc1ncc2c(n1)N(C)CCN(c1cccc(COCC(c3ccccc3)N(C)C(=O)OC(C)(C)C)c1)C2=O (centres unmarked) [Example 86, tert-butyl (2-((3-(2-(ethylamino)-9-methyl-5-oxo-5,7,8,9-tetrahydro-6H-pyrimido[4,5-e][1,4]diazepin-6-yl)benzyl)oxy)-1-phenylethyl)(methyl) carbamate]",> 3000 nM
10,"Cc1nnc(-c2cccc(N3CCN(C)c4nc(N(C)Cc5ccccc5)ncc4C3=O)c2)o1 [Example 104, 2-(benzyl(methyl)amino)-9-methyl-6-(3-(5-methyl-1,3,4-oxadiazol-2-yl)phenyl)-6,7,8,9-tetrahydro-5H-pyrimido[4,5-e][1,4]diazepin-5-one]",> 3000 nM
11,"CCN1CCN(Cc2ccc(O[C@@H](CCNC)c3cccs3)cc2)C(=O)c2cncnc21 [Example 398, (S)-9-ethyl-6-(4-(3-(methylamino)-1-(thiophen-2-yl)propoxy)benzyl)-6,7,8,9-tetrahydro-5H-pyrimido[4,5-e][1,4]diazepin-5-one]",100 to 500 nM
12,"Cc1nnc(-c2cccc(N3CCN(C)c4nc(NC5CCCCC5)ncc4C3=O)c2)o1 [Example 103, 2-(cyclohexylamino)-9-methyl-6-(3-(5-methyl-1,3,4-oxadiazol-2-yl)phenyl)-6,7,8,9-tetrahydro-5H-pyrimido[4,5-e][1,4]diazepin-5-one]",> 3000 nM
13,"Cc1nnc(-c2cccc(N3CCN(C)c4nc(NCC(C)C)ncc4C3=O)c2)o1 [Example 98, 2-(isobutylamino)-9-methyl-6-(3-(5-methyl-1,3,4-oxadiazol-2-yl)phenyl)-6,7,8,9-tetrahydro-5H-pyrimido[4,5-e][1,4]diazepin-5-one]",> 3000 nM
14,"CCNc1ncc2c(n1)N(C)CCN(c1cccc(-c3nnc(CN(C)C(=O)OC(C)(C)C)o3)c1)C2=O [Example 124, tert-butyl ((5-(3-(2-(ethylamino)-9-methyl-5-oxo-5,7,8,9-tetrahydro-6H-pyrimido[4,5-e][1,4]diazepin-6-yl)phenyl)-1,3,4-oxadiazol-2-yl)methyl)(methyl) carbamate]",> 3000 nM
15,"CCNc1ncc2c(n1)N(C)CCN(c1cccc(-n3cc(CN(Cc4ccccc4)C(=O)OC(C)(C)C)nn3)c1)C2=O [Example 118, tert-butyl benzyl((1-(3-(2-(ethylamino)-9-methyl-5-oxo-5,7,8,9-tetrahydro-6H-pyrimido[4,5-e][1,4]diazepin-6-yl)phenyl)-1H-1,2,3-triazol-4-yl)methyl)carbamate]",> 3000 nM
16,"CCNc1ncc2c(n1)N(C)CCN(Cc1cccc(OC(CNC)c3ccccc3)c1)C2=O (centres unmarked) [Example 200, 2-(ethylamino)-9-methyl-6-(3-(2-(methylamino)-1-phenylethoxy)benzyl)-6,7,8,9-tetrahydro-5H-pyrimido[4,5-e][1,4]diazepin-5-one]",> 3000 nM
17,"CSc1ncc2c(n1)N(C)CCN(c1cccc(COC(CCN(C)C(=O)OC(C)(C)C)c3cccs3)c1)C2=O (centres unmarked) [Example 15, tert-butyl methyl(3-((3-(9-methyl-2-(methylthio)-5-oxo-5,7,8,9-tetrahydro-6H-pyrimido[4,5-e][1,4]diazepin-6-yl)benzyl)oxy)-3-(thiophen-2-yl)propyl) carbamate]",> 3000 nM
18,"CCNc1ncc2c(n1)N(C)CCN(c1cccc(-n3cnc(CN(C)C(=O)OC(C)(C)C)c3)c1)C2=O [Example 123, tert-butyl ((1-(3-(2-(ethylamino)-9-methyl-5-oxo-5,7,8,9-tetrahydro-6H-pyrimido[4,5-e][1,4]diazepin-6-yl)phenyl)-1H-imidazol-4-yl)methyl)(methyl) carbamate]",> 3000 nM
19,"CCNc1ncc2c(n1)N(C)CCN(c1cccc(OCCNC)c1)C2=O [Example 170, 2-(ethylamino)-9-methyl-6-(3-(2-(methylamino)ethoxy)phenyl)-6,7,8,9-tetrahydro-5H-pyrimido[4,5-e][1,4]diazepin-5-one]",100 to 500 nM
20,"CNCCC(OCc1cccc(N2CCN(C)c3nc(OC)ncc3C2=O)c1)c1cccs1 (centres unmarked) [Example 221, 2-methoxy-9-methyl-6-(3-((3-(methylamino)-1-(thiophen-2-yl)propoxy)methyl)phenyl)-6,7,8,9-tetrahydro-5H-pyrimido[4,5-e][1,4]diazepin-5-one]",500 to 3000 nM
21,"CNCC[C@H](Oc1ccc(CN2CCN(C)c3c(Cl)cncc3C2=O)cc1)c1cccs1 [Example 400, (S)-9-chloro-1-methyl-4-(4-(3-(methylamino)-1-(thiophen-2-yl)propoxy)benzyl)-1,2,3,4-tetrahydro-5H-pyrido[4,3-e][1,4]diazepin-5-one]",500 to 3000 nM
22,"CSc1ncc2c(n1)N(C)CCN(c1ccc(OC(CN(C)C(=O)OC(C)(C)C)c3ccccc3)cc1)C2=O (centres unmarked) [Example 8, tert-butyl methyl(2-(4-(9-methyl-2-(methylthio)-5-oxo-5,7,8,9-tetrahydro-6H-pyrimido[4,5-e][1,4]diazepin-6-yl)phenoxy)-2-phenylethyl) carbamate]",> 3000 nM
23,"CCNc1ncc2c(n1)N(C)CCN(c1cccc(-n3cc(CN4CCC(c5ccccc5)(N(C)C)CC4)nn3)c1)C2=O [Example 291, 6-(3-(4-((4-(dimethylamino)-4-phenylpiperidin-1-yl)methyl)-1H-1,2,3-triazol-1-yl)phenyl)-2-(ethylamino)-9-methyl-6,7,8,9-tetrahydro-5H-pyrimido[4,5-e] [1,4]diazepin-5-one]",100 to 500 nM
24,"CCNc1ncc2c(n1)N(C)CCN(c1cccc(COC3(c4ccccc4)CCN(C)CC3)c1)C2=O [Example 272, 2-(ethylamino)-9-methyl-6-(3-(((1-methyl-4-phenylpiperidin-4-yl)oxy)methyl)phenyl)-6,7,8,9-tetrahydro-5H-pyrimido[4,5-e][1,4]diazepin-5-one]",500 to 3000 nM
25,"CCNc1ncc2c(n1)N(C)CCN(c1cccc(OC(CN)c3ccccc3)c1)C2=O (centres unmarked) [Example 156, 6-(3-(2-amino-1-phenylethoxy)phenyl)-2-(ethylamino)-9-methyl-6,7,8,9-tetrahydro-5H-pyrimido[4,5-e][1,4]diazepin-5-one]",> 3000 nM
26,"CSc1ncc2c(n1)N(C)CCN(c1cccc(O[Si](C)(C)C(C)(C)C)c1)C2=O [Example 34, 6-(3-((tert-butyldimethyl-silyl)oxy)phenyl)-9-methyl-2-(methylthio)-6,7,8,9-tetrahydro-5H-pyrimido[4,5-e][1,4]diazepin-5-one]",> 3000 nM
27,"CSc1ncc2c(n1)N(C)CCN(c1cccc(CN(C)C(=O)OC(C)(C)C)c1)C2=O [Example 26, tert-butyl methyl(3-(9-methyl-2-(methylthio)-5-oxo-5,7,8,9-tetrahydro-6H-pyrimido[4,5-e][1,4]diazepin-6-yl)benzyl) carbamate]",> 3000 nM
28,"CCNc1ncc2c(n1)N(C)CCN(c1ccccc1OC(CCNC)c1ccccc1)C2=O (centres unmarked) [Example 188, 2-(ethylamino)-9-methyl-6-(2-(3-(methylamino)-1-phenylpropoxy)phenyl)-6,7,8,9-tetrahydro-5H-pyrimido[4,5-e][1,4]diazepin-5-one]",> 3000 nM
